Among the test systems are NCI-H23 lung; HOP-92 NSCLC; SF-295 CNS; UACC-257 melanoma; A549 NSCLC; PC-3 prostate; CCRF-CEM leukemia; SW-620 colon.
What all share (assay): NCI tumour cell line growth inhibition, 48 h

We go through eleven molecules from PubChem BioAssay (NCI).

Molecules are shown by their SMILES. Values joined by “and” are separate entries in the source; they are usually repeats but may differ in a detail not shown here. Identical values can stand only once.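 Tested at 5 concentrations; 48 h exposure; 96-well plates; endpoints linearly interpolated, else capped at highest concentration. Here, GI50 denotes the concentration required for 50% inhibition of growth. TGI marks complete inhibition of growth.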 Where only a bound is given, the exact number is not on record here.

`COc1cc(/C=C\[N+](=O)[O-])ccc1OCc1ccccc1`: the GI50 was 2.07 µM in the assay with NCI-H23 lung; 12.5 µM in the assay on HOP-92 NSCLC; 4.07 µM with SF-295 CNS; 2.08 µM in the assay with UACC-257 melanoma; 3.17 µM with A549 NSCLC; 3.5 µM in the assay on PC-3 prostate. The GI50 was 3.13 µM with CCRF-CEM leukemia and 1.49 µM with SW-620 colon. For the same molecule, the TGI in the assay with NCI-H23 lung turned out to be 5.26 µM; in the assay with HOP-92 NSCLC it was 31.4 µM; with SF-295 CNS, 18.8 µM; in the assay on UACC-257 melanoma, 5.83 µM; in the assay on A549 NSCLC, 10.5 µM; in the assay on PC-3 prostate, 25.4 µM. Moreover, the TGI turned out to be 11.5 µM in the assay on CCRF-CEM leukemia and 4.02 µM in the assay on SW-620 colon.

On to `CN(C)N1C(=O)c2ccccc2NC1c1ccccc1` (centres undefined), for which the TGI in the assay with NCI-H23 lung, with HOP-92 NSCLC, in the assay with SF-295 CNS, in the assay on UACC-257 melanoma, with A549 NSCLC and with PC-3 prostate was over 100 µM in each case. Moreover, the TGI with CCRF-CEM leukemia and in the assay with SW-620 colon was over 100 µM each time.

Turning to `OCCSCc1ccccc1`, the TGI with NCI-H23 lung, in the assay with HOP-92 NSCLC, in the assay with SF-295 CNS, with UACC-257 melanoma, in the assay with A549 NSCLC and in the assay with PC-3 prostate was over 100 µM in each case. Further, the TGI in the assay on CCRF-CEM leukemia and in the assay with SW-620 colon was over 100 µM throughout.

Regarding `C#CC1(O)C(COP(=O)(O)OC2CC(n3cc(F)c(=O)[nH]c3=O)OC2CO)OC(n2ccc(N)nc2=O)C1O` (centres undefined), the GI50 in the assay with NCI-H23 lung is under 0.026 µM; in the assay with HOP-92 NSCLC, under 0.0242 µM; in the assay with SF-295 CNS, under 0.01 µM; in the assay on UACC-257 melanoma it was 0.0663 µM; in the assay on A549 NSCLC, under 0.01 µM; with PC-3 prostate, under 0.032 µM. Besides, the GI50 in the assay with CCRF-CEM leukemia was under 0.0129 µM; with SW-620 colon it was under 0.01 µM. For the same molecule, the TGI with NCI-H23 lung was over 38 µM; in the assay with HOP-92 NSCLC it was 3.75 µM; in the assay on UACC-257 melanoma, 2.18 µM; with A549 NSCLC it was over 54.4 µM; in the assay with PC-3 prostate, 29.7 µM; in the assay on SW-620 colon it was over 100 µM.

For the molecule `COc1cc2c3c(c1)c1cc(OC)c(OC)cc1c[n+]3CC2`, the TGI with NCI-H23 lung was 45.6 µM and > 100 µM; in the assay with SF-295 CNS, 50 µM and > 100 µM; in the assay with UACC-257 melanoma, 50 µM and 64.7 µM; in the assay with A549 NSCLC, over 100 µM; with PC-3 prostate it was 50 µM and > 100 µM; with CCRF-CEM leukemia, over 100 µM. Moreover, the TGI in the assay on SW-620 colon was over 100 µM. For the same molecule, the GI50 in the assay on UACC-257 melanoma is 15.9 µM; in the assay on A549 NSCLC it was 76.7 µM; with PC-3 prostate, 29.9 µM; in the assay with CCRF-CEM leukemia it was 69.8 µM; in the assay with SW-620 colon, 26.6 µM.

Take `O=C(c1ccc2ncc(-c3nc(NC4CC4)ncc3F)n2c1)N1CCOCC1`: the GI50 is 2.58 µM in the assay on NCI-H23 lung; 1.93 µM in the assay on HOP-92 NSCLC; 2.64 µM with SF-295 CNS; 2.71 µM in the assay on UACC-257 melanoma; 2.48 µM in the assay on A549 NSCLC; 2.14 µM in the assay on PC-3 prostate. The GI50 is 1.72 µM in the assay with CCRF-CEM leukemia and 2.91 µM in the assay with SW-620 colon. Further, the TGI in the assay on NCI-H23 lung is 9.68 µM; in the assay on HOP-92 NSCLC, 6.86 µM; in the assay with SF-295 CNS it was over 100 µM; with UACC-257 melanoma, 8.43 µM; with A549 NSCLC, over 100 µM; with PC-3 prostate it was 8.86 µM. Besides, the TGI in the assay with CCRF-CEM leukemia is 4.74 µM; in the assay with SW-620 colon, over 100 µM.

Regarding `O=c1nc(Nc2cccc(Cl)c2)oc2cc(Cl)oc(=O)c12`, the GI50 was 7.15 µM in the assay on NCI-H23 lung; 5.01 µM with HOP-92 NSCLC; 12.1 µM with SF-295 CNS; 10.3 µM in the assay with UACC-257 melanoma; 19.7 µM in the assay on A549 NSCLC; 10.8 µM in the assay with PC-3 prostate. Besides, the GI50 in the assay on CCRF-CEM leukemia was 2.87 µM; in the assay with SW-620 colon it was 10.9 µM. Moreover, the TGI with NCI-H23 lung amounted to 23.7 µM; in the assay on HOP-92 NSCLC, 19.5 µM; in the assay with SF-295 CNS, 43 µM; with UACC-257 melanoma, 23.9 µM; with A549 NSCLC it was 60.6 µM; in the assay on PC-3 prostate it was 66.5 µM. The TGI came to 14.9 µM with CCRF-CEM leukemia and 29.9 µM with SW-620 colon.

Regarding `CCOc1cc2c(NCCCN(CCO)CCO)ncnc2c(OCC)c1OCC`, the TGI in the assay with NCI-H23 lung is over 100 µM; in the assay with HOP-92 NSCLC, over 88 µM; in the assay on SF-295 CNS, over 100 µM; in the assay with UACC-257 melanoma, over 100 µM; in the assay with A549 NSCLC, over 100 µM; in the assay on PC-3 prostate, over 100 µM. The TGI with CCRF-CEM leukemia and with SW-620 colon was over 100 µM throughout.

Turning to `N=C(N=C(N)N)N1CCN(c2ccncc2)CC1`, the GI50 in the assay on NCI-H23 lung, with HOP-92 NSCLC, in the assay with SF-295 CNS, in the assay on UACC-257 melanoma, with A549 NSCLC and in the assay with PC-3 prostate was over 1000 µM throughout. Moreover, the GI50 with CCRF-CEM leukemia and with SW-620 colon was over 1000 µM throughout. Moreover, the TGI in the assay on NCI-H23 lung, in the assay with HOP-92 NSCLC, in the assay on SF-295 CNS, in the assay on UACC-257 melanoma, with A549 NSCLC and in the assay on PC-3 prostate was over 1000 µM throughout. For the same molecule, the TGI with CCRF-CEM leukemia and with SW-620 colon was over 1000 µM each time.

As for `CN(C)CCCN1c2nc3ccccc3cc2Sc2cc3ccccc3nc21`, the GI50 in the assay on NCI-H23 lung is 1.4 µM; in the assay on HOP-92 NSCLC, 0.332 µM; in the assay with SF-295 CNS, 1.39 µM; in the assay on UACC-257 melanoma, 1.76 µM; in the assay on PC-3 prostate, 1.36 µM; in the assay with CCRF-CEM leukemia, 1.12 µM. The GI50 in the assay with SW-620 colon was 1.48 µM. For the same molecule, the TGI with NCI-H23 lung amounted to 2.86 µM; with HOP-92 NSCLC, 1.42 µM; with SF-295 CNS, 2.81 µM; in the assay on UACC-257 melanoma, 3.53 µM; in the assay on PC-3 prostate, 2.74 µM; in the assay with CCRF-CEM leukemia, 2.55 µM. The same molecule came in with a TGI with SW-620 colon of 2.88 µM.

For `Cn1c(=O)c(Oc2ccccc2F)cc2cnc(NC3CCOCC3)nc21`, the GI50 with NCI-H23 lung was over 25 µM; with HOP-92 NSCLC it was 1.25 µM; in the assay on SF-295 CNS, over 25 µM; in the assay on UACC-257 melanoma, over 25 µM; with A549 NSCLC, over 25 µM; in the assay with PC-3 prostate, over 25 µM. The GI50 in the assay on CCRF-CEM leukemia and in the assay with SW-620 colon was over 25 µM throughout. The TGI was over 25 µM with NCI-H23 lung; 22.8 µM in the assay on HOP-92 NSCLC; over 25 µM in the assay with SF-295 CNS; over 25 µM in the assay on UACC-257 melanoma; over 25 µM in the assay with A549 NSCLC; over 25 µM in the assay on PC-3 prostate. In addition, the TGI in the assay on CCRF-CEM leukemia and in the assay on SW-620 colon was over 25 µM in each case.
